Test results: EP0768085A1, “ANTIBACTERIAL AGENT” (DAIICHI PHARMACEUTICAL CO., LTD., priority 1994, dated 1996)
In brackets after ≈: the same amount, converted by molar mass.

Experiments:
Type in all cases: cell-based
[1] = test system: Staphylococcus aureus TI-1; experiment: Antibacterial activity (IC), broth microplate as in Example 4 (Example 5, Table 40); details: TI1, 18 h
Description: (§1) A suitable amount of a sample was dissolved in dimethylsulfoxide (DMSO), and the resultant solution was diluted with the same amount of sterilized distilled water to prepare a bulk sample of 1,000 µg/ml. Mueller-Hinton broth (product of DIFCO) was dispensed into each well of 96-well microplate. Thereafter, the bulk specimen was added to the first well of a row, and successively diluted (10-fold each time) with sterilized distilled water. Separately, a bacterial cell suspension for the test (Staphylococcus aureus 209-P) which had been cultured in the above-mentioned broth overnight at 37°C was inoculated to each well so that the final inoculation amount of 10^6 CFU/ml was attained. The final concentrations of the samples were 100, 10, and 1 µg/ml.
(§2) The antibacterial action was evaluated by the inhibitory concentration (hereinafter abbreviated as IC) at which propagation of the bacteria cultured at 37°C for 18 hours was inhibited. Inhibition was determined by the turbidity of the medium. The expressions "IC≤100", "≤10", and "≤1" indicate that MIC-equivalent values obtained at the succesive […] dilution of the sample are 100-10 µg/ml, 10-1 µg/ml, and not more than 1 µg/ml, respectively. […] (In the subsequent Examples, the same rule applies correspondingly.) Table 39
In a manner similar to that described in Example 4, antibacterial activity of the invention compound was determined. The bacterium used for the test was Staphylococcus aureus TI-1.

[2] = test system: Staphylococcus aureus 209-P; experiment: Antibacterial activity (IC), Mueller-Hinton broth, 96-well microplate (Example 4, Table 39); details: 37°C, 18 hours
Description: as §1, §2

[3] = test system: Streptococcus aureus (TI-1); experiment: Antibacterial activity (IC), agar as in Example 8 (Example 16, Table 49); details: 18 h
Description: as §2
(§3) A suitable amount of a sample was dissolved in dimethylsulfoxide (DMSO), after which the resulting solution was diluted with the same amount of sterilized distilled water to prepare a bulk sample of 1,000 µg/ml. Separately, a bacterial liquid for the test (methicillin-resistant Staphylococcus aureus (MRSA) isolated from humans) which had been cultured in Mueller-Hinton broth (product of DIFCO) was prepared and inoculated to a Mueller-Hinton agar (product of DIFCO) containing the sample so that the final inoculation amount of 10^6 CFU/ml was achieved. The final concentrations of the samples were 100, 10, and 1 µg/ml.
(§4) After culturing at 37°C for 18 hours, the antibacterial activity was evaluated in terms of IC in a manner similar to that described in Example 4.
In a manner similar to that described in Example 8, antibacterial activity of the invention compound was determined. The bacterium used for the test was […] aureus (TI-1).

[4] = test system: Staphylococcus aureus (209-P); experiment: Antibacterial activity (IC), agar as in Example 8 (Example 15, Table 48); details: 18 h
Description: as §2, §3, §4
The bacterium used for the test was Staphylococcus aureus (209-P).

[5] = test system: Pasteurella multocida (Kobe-6); experiment: Antibacterial activity (IC), agar as in Example 8 (Example 17, Table 50); details: 18 h, origin pig
Description: as §2, §3, §4
In a manner similar to that described in Example 8, antibacterial activity of the invention compound was determined. The bacterium used for the test was Pasteurella Kobe-6 (origin: pig, Pasteurella multocida).

[6] = test system: methicillin-resistant Staphylococcus aureus (MRSA) from humans; experiment: Antibacterial activity (IC), agar as in Example 8 (Example 19, Table 52); details: 18 h
Description: as §2, §3, §4
In a manner similar to that described in Example 8, antibacterial activity of a variety of ketonitrile derivatives shown in Table 52 was measured. The bacterium used for the test was methicillin-resistant Staphylococcus aureus (MRSA) from humans.

| SMILES | MIC [1] [µg/mL] | MIC [2] [µg/mL] | further results |
| --- | --- | --- | --- |
| CC(Oc1ccc(Oc2nc3ccccc3s2)cc1)C(=O)C(C#N)c1ccc(Cl)cc1Cl (centres unmarked) [Compound No. 11] | 10 to 100 (≈ 20.7 to 207 µM) | 10 to 100 (≈ 20.7 to 207 µM) | – |
| N#CC(C(=O)COc1ccc(Oc2ccc(C(F)(F)F)cn2)cc1)c1cccc(Cl)c1 (centres unmarked) [Compound No. 13] | 10 to 100 (≈ 22.4 to 224 µM) | 10 to 100 (≈ 22.4 to 224 µM) | – |
| CC(Oc1ccc(Oc2ccc(C#N)cc2F)cc1)C(=O)C(C#N)c1ccccc1 (centres unmarked) [Compound No. 30] | 10 to 100 (≈ 25 to 250 µM) | 10 to 100 (≈ 25 to 250 µM) | – |
| CC(Oc1ccc(Oc2ccc(C#N)cc2F)cc1)C(=O)C(C#N)c1ccc(Cl)cc1Cl (centres unmarked) [Compound No. 31] | 10 to 100 (≈ 21.3 to 213 µM) | 10 to 100 (≈ 21.3 to 213 µM) | – |
| CC(Oc1ccc(Oc2ccc(C(F)(F)F)cc2Cl)cc1)C(=O)C(C#N)C(=O)N(C)c1ccccc1 (centres unmarked) [Compound No. 36, 4-[4-(2-chloro-4-trifluoromethylphenoxy)phenoxy]-2-methylphenylamidecarbonile-3-oxopentanitrile] | 1 to 10 (≈ 1.93 to 19.3 µM) | – | – |
| CC(Oc1ccc(Oc2ncc(C(F)(F)F)cc2Cl)cc1)C(=O)C(C#N)C(=O)N(Cc1ccccc1)Cc1ccccc1 (centres unmarked) [Compound No. 38, 4-[4-(3-chloro-5-trifluoromethylpyridyloxy)phenoxy]-2-dibenzylamidecarbonile-3-oxopentanitrile] | – | 1 to 10 (≈ 1.64 to 16.4 µM) | – |
| CC(Oc1cccc(Oc2ccc(C(F)(F)F)cn2)c1)C(=O)C(C#N)c1ccc(Cl)c(Cl)c1 (centres unmarked) [Compound No. 102, 2-(3,4-dichlorophenyl)-3-oxo-4-[3-(5-trifluoromethyl-2-pyridyloxy)phenoxy]pentanonitrile] | – | – | MIC [3]: ≤ 1 µg/mL; MIC [4]: 1 to 10 µg/mL (≈ 2.02 to 20.2 µM) |
| CC(Oc1cccc(Oc2ccc(C(F)(F)F)cc2Cl)c1)C(=O)C(C#N)c1cccc(Br)c1 (centres unmarked) [Compound No. 104, 2-(3-bromophenyl)-4-[3-(2-chloro-4-trifluoromethylphenoxy)phenoxy]-3-oxopentanonitrile] | – | – | MIC [3]: ≤ 1 µg/mL; MIC [4]: ≤ 1 µg/mL; MIC [5]: 1 to 10 µg/mL (≈ 1.86 to 18.6 µM); MIC ([6]; MRSA strain 891179): 1 to 10 µg/mL (≈ 1.86 to 18.6 µM); MIC ([6]; MRSA strain 891185): 1 to 10 µg/mL (≈ 1.86 to 18.6 µM); MIC ([6]; MRSA strain 891187): 1 to 10 µg/mL (≈ 1.86 to 18.6 µM); MIC ([6]; MRSA strain 891192): 1 to 10 µg/mL (≈ 1.86 to 18.6 µM); MIC ([6]; MRSA strain 900048): 1 to 10 µg/mL (≈ 1.86 to 18.6 µM); MIC ([6]; MRSA strain 900056): 1 to 10 µg/mL (≈ 1.86 to 18.6 µM) |
| COc1ccc(C(C#N)C(=O)C(C)Oc2cccc(Oc3ccc(C(F)(F)F)cc3Cl)c2)cc1 (centres unmarked) [Compound No. 107, 4-[3-(2-chloro-4-trifluoromethylphenoxy)-phenoxy]-2-(4-methoxyphenyl)-3-oxopentanonitrile] | – | – | MIC [3]: 10 to 100 µg/mL (≈ 20.4 to 204 µM); MIC [4]: 10 to 100 µg/mL (≈ 20.4 to 204 µM) |
| CC(Oc1ccc(Oc2nc(Cl)c(Cl)cc2Cl)cc1)C(=O)C(C#N)c1ccc(Cl)cc1Cl (centres unmarked) [compound 7] | 1 to 10 (≈ 1.88 to 18.8 µM) | 10 to 100 (≈ 18.8 to 188 µM) | – |
| CC(Oc1ccc(Oc2ccc(C(F)(F)F)cn2)cc1)C(=O)C(C#N)c1cccc(C(F)(F)F)c1 (centres unmarked) [compound 8] | 1 to 10 (≈ 2.02 to 20.2 µM) | 10 to 100 (≈ 20.2 to 202 µM) | – |
| N#CC(C(=O)COc1ccc(Oc2ncc(C(F)(F)F)cc2Cl)cc1)c1cccc(Cl)c1 (centres unmarked) [compound 12] | 1 to 10 (≈ 2.08 to 20.8 µM) | 10 to 100 (≈ 20.8 to 208 µM) | – |
| CC(Oc1ccc(Oc2ncc(C(F)(F)F)cc2Cl)cc1)C(=O)C(C#N)c1ccccc1 (centres unmarked) [compound 18] | 1 to 10 (≈ 2.17 to 21.7 µM) | 10 to 100 (≈ 21.7 to 217 µM) | – |
| CC(Oc1ccc(Oc2ncc(C(F)(F)F)cc2Cl)cc1)C(=O)C(C#N)c1cccs1 (centres unmarked) [compound 19] | 10 to 100 (≈ 21.4 to 214 µM) | 10 to 100 (≈ 21.4 to 214 µM) | – |
| CC(Oc1ccc(Oc2ncc(C(F)(F)F)cc2Cl)cc1)C(=O)C(C#N)c1nc(Cl)cc(Cl)n1 (centres unmarked) [compound 21] | 1 to 10 (≈ 1.88 to 18.8 µM) | 10 to 100 (≈ 18.8 to 188 µM) | – |
| CC(Oc1ccc(Oc2ncc(C(F)(F)F)cc2Cl)cc1)C(=O)C(C#N)c1c(Cl)cccc1Cl (centres unmarked) [compound 23] | – | 10 to 100 (≈ 18.9 to 189 µM) | – |
| CC(Oc1ccc(Oc2ncc(C(F)(F)F)cc2Cl)cc1)C(=O)C(C#N)c1c(F)cccc1Cl (centres unmarked) [compound 24] | 10 to 100 (≈ 19.5 to 195 µM) | 10 to 100 (≈ 19.5 to 195 µM) | – |
